Patent publication US8163728B2, “Pyrazoles” (Hoffmann-La Roche Inc., priority 2009, dated 2012)

Target: T1, GABA A α5 (Homo sapiens, UniProt P18507+P31644)
T1 construct: expressed in transfected cells; host or cells: HEK293 cells, transiently transfected; membranes prepared from cell pellets
Assay: [3H]flumazenil competition binding, human GABA A α5β3γ2 receptors in HEK293 cell membranes
Conditions: human receptor α5β3γ2 transiently transfected in HEK293; 0.5 nM [3H]flumazenil; 1 hour at 4° C.; means of two determinations; read-out: hKi GABA A α5
Method in brief: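 Competition with [3H]flumazenil for binding to membranes of HEK293 cells transiently expressing human α5β3γ2, in Krebs-tris buffer pH 7.5. Incubated to equilibrium 1 h at 4 °C, filtered and scintillation-counted; Ki values are means of two determinations.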

Row | Structure (SMILES) | Ki
1 | Cn1nc(OCc2c(-c3ccc(F)cc3)noc2CO)cc1C(=O)NC1(C)COC1 (racemic) [Example 98, Rac-5-[3-(4-fluoro-phenyl)-5-hydroxymethyl-isoxazol-4-ylmethoxy]-2-methyl-2H-pyrazole-3-carboxylic acid (3-methyl-oxetan-3-yl)-amide] | 4.9 nM
2 | Cn1nc(OCc2c(-c3ccc(F)cc3)noc2CO)cc1C(=O)NC1CCOC1 (racemic) [Example 97, Rac-5-[3-(4-fluoro-phenyl)-5-hydroxymethyl-isoxazol-4-ylmethoxy]-2-methyl-2H-pyrazole-3-carboxylic acid (tetrahydro-furan-3-yl)-amide] | 4.5 nM
3 | Cc1onc(-c2ccc(F)cc2)c1COc1cc(C(=O)N2CC(O)C2)n(C)n1 [Example 71, {5-[3-(4-Fluoro-phenyl)-5-methyl-isoxazol-4-ylmethoxy]-2-methyl-2H-pyrazol-3-yl}-(3-hydroxy-azetidin-1-yl)-methanone] | 16.5 nM
4 | Cc1onc(-c2ccc(F)cn2)c1COc1cc(C(=O)NC2CCOC2)[nH]n1 (racemic) [Example 18, Rac-5-[3-(5-Fluoro-pyridin-2-yl)-5-methyl-isoxazol-4-ylmethoxy]-2H-pyrazole-3-carboxylic acid (tetrahydro-furan-3-yl)-amide] | 1.2 nM
5 | Cn1ccc(NC(=O)c2cc(OCc3c(-c4ccc(F)cc4)noc3CO)nn2C)n1 [Example 96, 5-[3-(4-Fluoro-phenyl)-5-hydroxymethyl-isoxazol-4-ylmethoxy]-2-methyl-2H-pyrazole-3-carboxylic acid (1-methyl-1H-pyrazol-3-yl)-amide] | 42.7 nM
6 | Cc1onc(-c2ccc(F)cc2)c1CNc1cc(C(=O)N2CC3(COC3)C2)n(C)n1 [Example 149, (5-{[3-(4-Fluoro-phenyl)-5-methyl-isoxazol-4-ylmethyl]-amino}-2-methyl-2H-pyrazol-3-yl)-(2-oxa-6-aza-spiro[3.3]hept-6-yl)-methanone] | 67.5 nM
7 | CCCCc1noc(C)c1COc1cc(C(=O)NC2CCOCC2)[nH]n1 [Example 26, 5-(3-Butyl-5-methyl-isoxazol-4-ylmethoxy)-2H-pyrazole-3-carboxylic acid (tetrahydropyran-4-yl)-amide] | 2.3 nM
8 | Cc1onc(-c2ccc(F)cc2)c1/C=C/c1cc(C(=O)NCC(C)(C)O)[nH]n1 [Example 140, 5-{(E)-2-[3-(4-Fluoro-phenyl)-5-methyl-isoxazol-4-yl]vinyl}-2H-pyrazole-3-carboxylic acid (2-hydroxy-2-methyl-propyl)-amide] | 3.8 nM
9 | CCCCc1noc(C)c1COc1cc(C(=O)N[C@@H](C)CO)[nH]n1 (single isomer, unassigned) [Example 30] | 25.2 nM
10 | Cc1onc(-c2ccc(F)cc2)c1/C=C/c1cc(C(=O)N2CC3(COC3)C2)[nH]n1 [Example 137, (5-{(E)-2-[3-(4-Fluoro-phenyl)-5-methyl-isoxazol-4-yl]vinyl}-2H-pyrazol-3-yl)-(2-oxa-6-aza-spiro[3.3]hept-6-yl)-methanone] | 1.4 nM
11 | Cc1onc(-c2ccc(F)cc2)c1COc1cc(C(=O)NC(C)C)[nH]n1 [Example 12, 5-[3-(4-Fluoro-phenyl)-5-methyl-isoxazol-4-ylmethoxy]-2H-pyrazole-3-carboxylic acid isopropylamide] | 2.3 nM
12 | Cc1onc(-c2ccc(F)cc2)c1COc1cc(C(=O)NCC(C)(C)CO)n(C)n1 [Example 65, 5-[3-(4-Fluoro-phenyl)-5-methyl-isoxazol-4-ylmethoxy]-2-methyl-2H-pyrazole-3-carboxylic acid (3-hydroxy-2,2-dimethyl-propyl)-amide] | 5.8 nM
13 | Cc1onc(-c2ccc(F)cc2)c1/C=C/c1cc(C(=O)NC(C)(C)CO)[nH]n1 [Example 138, 5-{(E)-2-[3-(4-Fluoro-phenyl)-5-methyl-isoxazol-4-yl]vinyl}-2H-pyrazole-3-carboxylic acid (2-hydroxy-1,1-dimethyl-ethyl)-amide] | 11 nM
14 | CCCCc1noc(C)c1COc1cc(C(=O)NN2CCOCC2)[nH]n1 [Example 39, 5-(3-Butyl-5-methyl-isoxazol-4-ylmethoxy)-2H-pyrazole-3-carboxylic acid morpholin-4-ylamide] | 5.8 nM
15 | CCCCc1noc(C)c1COc1cc(C(=O)NN2CCCC2)[nH]n1 [Example 40, 5-(3-Butyl-5-methyl-isoxazol-4-ylmethoxy)-2H-pyrazole-3-carboxylic acid pyrrolidin-1-ylamide] | 21.5 nM
16 | Cc1onc(-c2ccc(F)cc2)c1/C=C/c1cc(C(=O)N2CC3(COC3)C2)n(C)n1 [Example 135, (5-{(E)-2-[3-(4-Fluoro-phenyl)-5-methyl-isoxazol-4-yl]-vinyl}-2-methyl-2H-pyrazol-3-yl)-(2-oxa-6-aza-spiro[3.3]hept-6-yl)-methanone] | 2.4 nM

Row | Structure (SMILES) | Ki
17 | COCCNC(=O)c1cc(OCc2c(-c3ccc(F)cc3)noc2C)nn1C [Example 60, 5-[3-(4-Fluoro-phenyl)-5-methyl-isoxazol-4-ylmethoxy]-2-methyl-2H-pyrazole-3-carboxylic acid (2-methoxy-ethyl)-amide] | 13.2 nM
18 | Cc1onc(-c2ccc(F)cc2)c1COc1cc(C(=O)N2CC3(COC3)C2)n(C)n1 [Example 77, {5-[3-(4-Fluoro-phenyl)-5-methyl-isoxazol-4-ylmethoxy]-2-methyl-2H-pyrazol-3-yl}-(2-oxa-6-aza-spiro[3.3]hept-6-yl)-methanone] | 45.8 nM
19 | Cc1onc(-c2ccccn2)c1CNc1cc(C(=O)NN2CCOCC2)n(C)n1 [Example 161, 1-Methyl-3-((5-methyl-3-(pyridin-2-yl)isoxazol-4-yl)methylamino)-N-morpholino-1H-pyrazole-5-carboxamide] | 19.4 nM
20 | Cc1onc(-c2ccc(F)cn2)c1CNc1cc(C(=O)NC2CCOCC2)n(C)n1 [Example 164, 3-((3-(5-Fluoropyridin-2-yl)-5-methylisoxazol-4-yl)methylamino)-1-methyl-N-(tetrahydro-2H-pyran-4-yl)-1H-pyrazole-5-carboxamide] | 11.9 nM
21 | CCCCc1noc(C)c1COc1cc(C(=O)NCCO)n(C)n1 [Example 85, 5-(3-Butyl-5-methyl-isoxazol-4-ylmethoxy)-2-methyl-2H-pyrazole-3-carboxylic acid (2-hydroxy-ethyl)-amide] | 27.6 nM
22 | Cc1onc(-c2ccc(F)cc2)c1/C=C/c1cc(C(=O)NCC(F)(F)F)n(C)n1 [Example 128, 5-{(E)-2-[3-(4-Fluoro-phenyl)-5-methyl-isoxazol-4-yl]vinyl}-2-methyl-2H-pyrazole-3-carboxylic acid (2,2,2-trifluoro-ethyl)-amide] | 1.2 nM
23 | Cc1onc(-c2ccccc2)c1COc1cc(C(=O)NN(C)C)[nH]n1 [Example 5, 5-(5-Methyl-3-phenyl-isoxazol-4-ylmethoxy)-2H-pyrazole-3-carboxylic acid N′,N′-dimethyl-hydrazide] | 14.6 nM
24 | Cc1onc(-c2ccccn2)c1COc1cc(C(=O)NC2CCOCC2)n(C)n1 [Example 79, 2-Methyl-5-(5-methyl-3-pyridin-2-yl-isoxazol-4-ylmethoxy)-2H-pyrazole-3-carboxylic acid (tetrahydro-pyran-4-yl)-amide] | 6.5 nM
25 | Cc1onc(-c2ccc(F)cc2)c1COc1cc(C(=O)NN2CCCC2)n(C)n1 [Example 51, 5-[3-(4-Fluoro-phenyl)-5-methyl-isoxazol-4-ylmethoxy]-2-methyl-2H-pyrazole-3-carboxylic acid pyrrolidin-1-ylamide] | 11.4 nM
26 | Cn1nc(OCc2c(-c3ccc(Cl)cc3)noc2CO)cc1C(=O)NCC(F)(F)C(F)(F)F [Example 104, 5-[3-(4-Chloro-phenyl)-5-hydroxymethyl-isoxazol-4-ylmethoxy]-2-methyl-2H-pyrazole-3-carboxylic acid (2,2,3,3,3-pentafluoro-propyl)-amide] | 6.6 nM
27 | Cc1onc(-c2ccc(F)cc2)c1COc1cc(C(=O)NCC(O)C(F)(F)F)n(C)n1 (racemic) [Example 59, Rac-5-[3-(4-Fluoro-phenyl)-5-methyl-isoxazol-4-ylmethoxy]-2-methyl-2H-pyrazole-3-carboxylic acid (3,3,3-trifluoro-2-hydroxy-propyl)-amide] | 1.8 nM
28 | Cn1nc(OCc2c(-c3ccc(Cl)cc3)noc2CO)cc1C(=O)N1CCC(F)(F)CC1 [Example 111, {5-[3-(4-Chloro-phenyl)-5-hydroxymethyl-isoxazol-4-ylmethoxy]-2-methyl-2H-pyrazol-3-yl}-(4,4-difluoro-piperidin-1-yl)-methanone] | 52.5 nM
29 | Cc1onc(-c2ccc(F)cc2)c1COc1cc(C(=O)NC2CCOC2)n(C)n1 (racemic) [Example 72, Rac-5-[3-(4-Fluoro-phenyl)-5-methyl-isoxazol-4-ylmethoxy]-2-methyl-2H-pyrazole-3-carboxylic acid (tetrahydro-furan-3-yl)-amide] | 1.5 nM
30 | Cc1onc(-c2ccc(F)cc2)c1COc1cc(C(=O)N[C@@H](C)CO)n(C)n1 (single isomer, unassigned) [Example 75, (+)-5-[3-(4-Fluoro-phenyl)-5-methyl-isoxazol-4-ylmethoxy]-2-methyl-2H-pyrazole-3-carboxylic acid ((R)-2-hydroxy-1-methyl-ethyl)-amide or 5-[3-(4-fluoro-phenyl)-5-methyl-isoxazol-4-ylmethoxy]-2-methyl-2H-pyrazole-3-carboxylic acid ((S)-2-hydroxy-1-methyl-ethyl)-amide or enantiomer] | 5.7 nM
31 | Cn1nc(OCc2c(-c3ccc(F)cc3)noc2CO)cc1C(=O)NCC(F)(F)C(F)(F)F [Example 95, 5-[3-(4-Fluoro-phenyl)-5-hydroxymethyl-isoxazol-4-ylmethoxy]-2-methyl-2H-pyrazole-3-carboxylic acid (2,2,3,3,3-pentafluoro-propyl)-amide] | 8 nM
32 | Cn1nc(OCc2c(-c3ccc(Cl)cc3)noc2CO)cc1C(=O)NC1CCOC1 (racemic) [Example 110, Rac-5-[3-(4-Chloro-phenyl)-5-hydroxymethyl-isoxazol-4-ylmethoxy]-2-methyl-2H-pyrazole-3-carboxylic acid (tetrahydro-furan-3-yl)-amide] | 2.7 nM
